Experimental data as given in PubChem BioAssay (NCI).
Where “and” joins values, the source holds several entries; their conditions need not be identical. Equal values may be shown once.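 Following 48 hours of exposure in 96-well plates, responses at five concentrations were used to interpolate endpoints linearly. GI50 is the concentration that inhibits growth by half. TGI denotes the concentration required for complete inhibition of growth.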

How the values were obtained:
Assay in all cases: NCI anticancer screen, dose series, 48 h
MALME-3M melanoma = system: MALME-3M melanoma
OVCAR-8 ovarian = system: OVCAR-8 ovarian
COLO 205 colon = system: COLO 205 colon
SK-MEL-5 melanoma = system: SK-MEL-5 melanoma
MOLT-4 leukemia = system: MOLT-4 leukemia
CCRF-CEM leukemia = system: CCRF-CEM leukemia
HCT-116 colon = system: HCT-116 colon
NCI-H460 lung = system: NCI-H460 lung
SK-OV-3 ovarian = system: SK-OV-3 ovarian
SF-539 CNS = system: SF-539 CNS
MDA-MB-435 = system: MDA-MB-435
MDA-N = system: MDA-N
OVCAR-5 ovarian = system: OVCAR-5 ovarian

SMILES	TGI (MALME-3M melanoma)	TGI (OVCAR-8 ovarian)	TGI (COLO 205 colon)	TGI (SK-MEL-5 melanoma)	TGI (MOLT-4 leukemia)	TGI (CCRF-CEM leukemia)	TGI (HCT-116 colon)	TGI (NCI-H460 lung)	TGI (SK-OV-3 ovarian)	TGI (SF-539 CNS)	TGI (MDA-MB-435)	TGI (MDA-N)	TGI (OVCAR-5 ovarian)	GI50 (OVCAR-8 ovarian)	GI50 (MOLT-4 leukemia)	GI50 (SK-MEL-5 melanoma)	GI50 (MDA-MB-435)	GI50 (MDA-N)	GI50 (OVCAR-5 ovarian)
C/C(=C\CC/C=C(\C)CC/C=C(\C)CCC1SC1(C)C)CC/C=C(\C)CCC1OC1(C)C (centres undefined)	> 100 µM	> 100 µM	> 100 µM	> 100 µM	> 100 µM	> 100 µM	> 100 µM	> 100 µM	> 100 µM	> 100 µM									
COc1nc2c(c(=O)[nH]1)N=C(c1ccc(Cl)cc1)CC(c1ccccc1)N2 (centres undefined)		60.9 µM	> 100 µM	36.8 µM	> 100 µM	44.9 µM	> 100 µM	69.3 µM		42.1 µM	> 100 µM	76.8 µM	> 100 µM						
CC(C)=CCOc1ccc(-c2coc3cc4c(c(O)c3c2=O)C=CC(C)(C)O4)cc1		> 100 µM	> 100 µM	0.932 µM	> 100 µM	> 100 µM	> 100 µM	> 100 µM					> 100 µM						
CC12CCC(=O)[C@@]1(C)CCCC2O (some centres undefined)	> 100 µM	> 100 µM	> 100 µM	> 100 µM	> 100 µM	> 100 µM	> 100 µM	> 100 µM	> 100 µM	> 100 µM		> 100 µM	> 100 µM						
CC(=O)OCC1=CC2CCC3C(C)(CCC[C@]3(C)COC(C)=O)C23CC[C@H]1C3 (some centres undefined)	> 100 µM	> 100 µM	49.3 µM	58.8 µM	51.5 µM	93.3 µM	> 100 µM	> 100 µM	> 100 µM	> 100 µM			> 100 µM						
Cc1cc(C)c(C(=O)C(C)C(c2ccccc2)c2ccc(Cl)cc2)c(C)c1 (centres undefined)	71.9 µM and > 100 µM	> 100 µM	> 100 µM	> 100 µM	> 100 µM	> 100 µM	> 100 µM	> 100 µM	> 100 µM	> 100 µM									
CC1OC(CC2C=CCc3c(O)c4c(c(O)c32)C(=O)c2ccccc2C4=O)CC(NC(=O)C(F)(F)F)C1O (centres undefined)	10.1 µM	15 µM	53.4 µM	27.3 µM	22.5 µM	20.7 µM	11.4 µM	24.1 µM	24.6 µM	15 µM			> 100 µM						
CCCCCCCCCCCCCCCCCCOCC(O)CO (centres undefined)	> 21.1 µM	> 25 µM	> 25 µM	3.65 µM	> 25 µM	> 22.5 µM	> 25 µM	> 23 µM	> 25 µM	> 25 µM			> 25 µM						
CCCC(C(=O)Nc1cccc2[nH]cnc12)C(=O)OCC (centres undefined)		> 100 µM			> 100 µM		> 100 µM	> 100 µM	> 100 µM	> 100 µM	> 100 µM		> 100 µM						
CC(O)C1OC(n2ccc(=O)[nH]c2=O)CC1n1cncn1 (centres undefined)	> 100 µM	> 100 µM	> 100 µM	> 100 µM	> 100 µM	> 100 µM	> 100 µM	> 100 µM	> 100 µM				> 100 µM						
COC1(C)CNCC(C)(C)NC(=O)C(C)(OC)CNCC(C)(C)NC1=O (centres undefined)	> 100 µM	> 100 µM	> 100 µM	> 100 µM	> 100 µM	> 100 µM	> 100 µM	> 100 µM	> 100 µM	> 100 µM			> 100 µM						
CCOC(=O)c1nc2cc(F)cc(F)c2[nH]c1=O		> 100 µM	> 100 µM	> 100 µM	> 100 µM	> 100 µM	> 100 µM	> 100 µM	> 100 µM	> 100 µM	> 100 µM	> 100 µM	> 100 µM						
CCOC(OC1=C(C#N)CCCC1)C(CC)[Se]c1ccccc1[N+](=O)[O-] (centres undefined)	> 100 µM	48.7 µM	> 100 µM	28.7 µM	71.2 µM	49.6 µM	36.8 µM	> 100 µM	> 100 µM	37.8 µM			66.8 µM						
CC(=O)OCC1OC(n2c(O)c(N=NC(N)=S)c3ccc([N+](=O)[O-])cc32)C(OC(C)=O)C1OC(C)=O (centres undefined)	> 100 µM	43.1 µM	> 100 µM	> 100 µM	54.9 µM	64.8 µM	29.5 µM	66.2 µM	> 100 µM	70.2 µM			> 100 µM						
COc1cc([C@@H]2c3cc4c(cc3[C@@H](NC(=O)NO)[C@H]3COC(=O)[C@H]23)OCO4)cc(OC)c1O		> 100 µM	> 100 µM		> 100 µM	> 100 µM	> 100 µM	> 100 µM		> 100 µM		5.13 µM		34.4 µM	4.87 µM				
COC(=O)/C(=N\N)C(C(=O)C(=O)Nc1nc(=S)[nH][nH]1)c1nc2ccc([N+](=O)[O-])cc2[nH]c1=O (centres undefined)	> 100 µM	> 100 µM	> 100 µM	> 100 µM	> 100 µM	> 100 µM	> 100 µM	> 100 µM	> 100 µM	> 100 µM			> 100 µM						
CCC(=O)CCC1=Nc2nnc(CCCCc3nnc4n3C(=O)C(CCC(=O)CC)=N4)n2C1=O	> 100 µM	> 100 µM	> 100 µM		> 100 µM	> 100 µM		> 100 µM	> 100 µM	> 100 µM			> 100 µM						
COC(=O)C(C#N)C1NC(=O)c2ccccc21 (centres undefined)	> 100 µM	> 100 µM	> 100 µM	> 100 µM	> 100 µM	> 100 µM	> 100 µM	> 100 µM	> 100 µM	> 100 µM			> 100 µM						
O=C(NCc1ccccc1)C1C(=O)C(=O)N(Cc2ccccc2)C1=O (centres undefined)	> 100 µM	> 100 µM	> 100 µM	> 100 µM	> 100 µM	> 100 µM	> 100 µM	> 100 µM	> 100 µM	> 100 µM			> 100 µM						
Cc1ccc(O)c(C(c2cc(C)ccc2O)c2cc([N+](=O)[O-])ccc2O)c1		25.5 µM	45.9 µM	> 100 µM	35 µM	91 µM	56.1 µM		37 µM	33.9 µM	45.3 µM		28.8 µM						
COc1ccc2[nH]c3c(O)c(-c4c(C)cc5c([nH]c6ccc(OC)cc65)c4O)c(C)cc3c2c1		8.39 µM		8.18 µM	7.52 µM		7.63 µM	7.52 µM		8.81 µM	8 µM	8.22 µM	7.34 µM		3.23 µM	4.34 µM	4.34 µM	4.5 µM	3.82 µM
C/C=C1/C(=Cc2[nH]c(C=c3[nH]/c(=C/C4=NC(=O)C(CC)=C4C)c(C)c3CCC(=O)O)c(CCC(=O)O)c2C)NC(=O)C1C (centres undefined)	31.9 µM	5 µM	> 50 µM		37.2 µM	> 50 µM	> 50 µM	40.6 µM	> 50 µM	23 µM			27.4 µM						
COc1cc2cnc3c4cc(OC)c(OC(C)C)cc4ccc3c2cc1OC	> 100 µM	> 100 µM	> 100 µM	> 100 µM	> 100 µM	> 100 µM	> 100 µM	> 100 µM	> 100 µM	> 100 µM			> 100 µM						
CN1N=C(c2ccccc2)c2cc(Cl)ccc2N=C1N/N=C/c1ccc(N(C)C)cc1		> 100 µM	> 100 µM	> 100 µM	> 100 µM	> 100 µM	> 100 µM	> 100 µM	> 100 µM	> 100 µM	> 100 µM	> 100 µM							
CN1C(=O)N(c2nc3ccccc3[nH]2)C(C)(C)C1=O	> 100 µM	> 100 µM	> 100 µM	> 100 µM	> 100 µM	> 100 µM	> 100 µM		> 100 µM	> 100 µM									
C/C(=N/N)c1sc(-c2nc(C)c(/C(C)=N\N)s2)nc1C	> 100 µM	> 100 µM	> 68.9 µM	> 100 µM	83.3 µM	> 76.7 µM	> 100 µM	> 100 µM	> 100 µM	> 100 µM			> 100 µM						
COc1cc2c(cc1OC)[C@H]1C(COC(=O)Nc3ccccc3)CN1CC2 (some centres undefined)	> 100 µM	> 100 µM	> 100 µM	> 100 µM	> 100 µM	> 100 µM	> 100 µM	> 100 µM	> 100 µM	> 100 µM			> 100 µM						
CCOC(=O)c1ccn2c(c1)c(C#N)c1nc3ccccc3nc12	> 100 µM	> 100 µM	> 100 µM	> 100 µM	50.6 µM	68.4 µM	> 100 µM	> 100 µM	> 100 µM	> 100 µM			> 100 µM						
COc1ccc(NC(/C(C(=O)C(=O)/C=C(\O)c2ccccc2)=C(\O)c2ccccc2)c2ccc(OC)cc2)cc1 (centres undefined)	75.6 µM	> 100 µM	> 100 µM	> 100 µM	> 100 µM	> 100 µM	> 100 µM	> 100 µM	> 100 µM	> 100 µM	59.1 µM		> 100 µM						
